Assay in all cases: Agar dilution test on mDixon agar, minimal inhibitory concentration (MIC)
What all share (format): cell-based

Experiment [1] has as its system M. globosa. The conditions noted are these: agar dilution, pH 5.5, 32° C., up to 14 days; for MIC: Malassezia globosa, read-out: Minimal inhibitory concentration (MIC). On the procedure:
(§1) The fatty acid esters and their mixtures were tested for growth inhibition against Malassezia. The following reference strains were included:
(§2) Tests were performed on solid media using agar dilution tests. Stock solutions of test substances were prepared in mDixon-Agar (cf. Table 2). Lower test concentrations were obtained by diluting stock solutions with fresh agar.
(§3) Preparation of liquid agar was carried out in temperated water bath. Required amounts of test substances were weighed in 130 ml of Dixon Agar and mixed with fresh Dixon-Agar to reach desired concentrations of test substances. Agar solutions with test substances were then poured into 24 well-plates. The pH value in all assays was maintained at 5.5. Preparation of test substances was done on weight per volume base. All results are expressed in parts per million (1 ppm=0.0001%).
(§4) Briefly, Malassezia strains were cultivated on selective agar for pathogenic fungi (Merck) and overlaid with a thin layer of cold-sterilized olive oil. […] Incubation was carried out at 32° C. over a maximal duration of 14 days with regular inspection and documentation of growth status. Minimal inhibitory concentrations (MICs) were determined as the lowest concentrations of test compound without visible growth. Each experiment was repeated to confirm results.

For experiment [2], the system named is M. restricta. The conditions noted are these: M. restricta CBS 7877, agar dilution, pH 5.5, 32° C., up to 14 days; for MIC: 336 h, read-out: Minimal inhibitory concentration (MIC). On the procedure: as §1, §2, §3, §4
For experiment [3], the system named is M. sympodialis. The conditions noted are these: up to 14 days; for MIC: 336 h, read-out: Minimal inhibitory concentration (MIC). How it is done: as §1, §2, §3, §4
The test system of experiment [4] is M. furfur. The conditions noted are these: agar dilution, pH 5.5, 32° C., up to 14 days; for MIC: Malassezia furfur, read-out: Minimal inhibitory concentration (MIC). On the procedure: as §1, §2, §3, §4
For experiment [5], the system named is M. pachydermatis. The conditions noted are these: agar dilution, pH 5.5, 32° C., up to 14 days; for MIC: Malassezia pachydermatis, read-out: Minimal inhibitory concentration (MIC). On the procedure:
as §1, §2, §3, §4

[6] abbreviates: CBS7705, 336 h, M. globosa CBS 7705.
Setting [7] is: CBS7966, 336 h, M. globosa CBS 7966.
[8] abbreviates: pH 5.5, M. sympodialis ATCC 42132, pH 5.5, 32° C.
Where [9] appears, read: pH 5.5, M. sympodialis CBS 7222, pH 5.5, 32° C.
Where [10] appears, read: pH 5.5, M. sympodialis CBS 7979, pH 5.5, 32° C.
Setting [11] is: pH 5.5, M. sympodialis DSM 6171, pH 5.5, 32° C.
[12] abbreviates: CBS1878, 336 h, M. furfur CBS 1878.
Setting [13] is: CBS7019, 336 h, M. furfur CBS 7019.
Setting [14] is: CBS1879, 336 h, M. pachydermatis CBS 1879.
[15] abbreviates: M. sympodialis ATCC 42132, pH 5.5, 32° C.
Where [16] appears, read: M. sympodialis CBS 7222, pH 5.5, 32° C.
[17] abbreviates: M. sympodialis CBS 7979, pH 5.5, 32° C.
The mark [18] stands for this setting: M. sympodialis DSM 6171, pH 5.5, 32° C.

≈ marks a conversion by molar mass, not a printed value. Read-outs that look alike come from different tables or passages of the source. Some results are limits rather than exact numbers.

As to `CCCCCCC(O)CO` (centres unmarked) [1,2-Octandiol], the MIC in experiment [1] (336 h, M. globosa PM1) came out at 2000 µg/mL (≈ 13.7 mM); in experiment [1] (setting [6]), 4000 µg/mL (≈ 27.4 mM); in experiment [1] (setting [7]), 2000 µg/mL (≈ 13.7 mM); in experiment [2], 1000 µg/mL (≈ 6.84 mM); in experiment [3] (setting [8]) it was 2000 µg/mL (≈ 13.7 mM); in experiment [3] (setting [9]) it was 2000 µg/mL (≈ 13.7 mM). Also, the MIC in experiment [3] (setting [10]) and in experiment [3] (setting [11]) was 2000 µg/mL (≈ 13.7 mM) in each case.
Take `C=CCCCCCCCCC(=O)OCC(O)CO` (centres unmarked) [Glyceryl monoundecylenoate]: the MIC is 8000 µg/mL (≈ 31 mM) in experiment [4] (setting [12]); 8000 µg/mL (≈ 31 mM) in experiment [4] (setting [13]); 2000 µg/mL (≈ 7.74 mM) in experiment [1] (336 h, M. globosa PM1); 1000 µg/mL (≈ 3.87 mM) in experiment [1] (setting [6]); 2000 µg/mL (≈ 7.74 mM) in experiment [1] (setting [7]); 4000 µg/mL (≈ 15.5 mM) in experiment [5] (336 h, M. pachydermatis 1892). For the same compound, the MIC came out at 8000 µg/mL (≈ 31 mM) in experiment [5] (setting [14]); 1000 µg/mL (≈ 3.87 mM) in experiment [2]; 500 µg/mL (≈ 1.94 mM) in experiment [3] (setting [8]); 500 µg/mL (≈ 1.94 mM) in experiment [3] (setting [9]); 500 µg/mL (≈ 1.94 mM) in experiment [3] (setting [10]); 200 µg/mL (≈ 0.774 mM) in experiment [3] (setting [11]).
As to PEG-9-undecylenoate, the “Minimal inhibitory concentration (MIC)” value is on record as 20000 ppm in experiment [4] (M. furfur CBS 1878); above 20000 ppm in experiment [4] (M. furfur CBS 7019); 10000 ppm in experiment [1] (M. globosa CBS 7966); 8000 ppm in experiment [1] (M. globosa PM1); 8000 ppm in experiment [5] (M. pachydermatis 1892); 8000 ppm in experiment [5] (M. pachydermatis CBS 1879). Besides, in experiment [2], the “Minimal inhibitory concentration (MIC)” value came out at 4000 ppm.
On to `CCCCC(O)CO` (centres unmarked) [1,2-Hexandiol], for which the MIC came to 5000 µg/mL (≈ 42.3 mM) in experiment [1] (336 h, M. globosa PM1); 10000 µg/mL (≈ 84.6 mM) in experiment [1] (setting [6]); 5000 µg/mL (≈ 42.3 mM) in experiment [1] (setting [7]); 5000 µg/mL (≈ 42.3 mM) in experiment [2]; 10000 µg/mL (≈ 84.6 mM) in experiment [3] (setting [8]); 10000 µg/mL (≈ 84.6 mM) in experiment [3] (setting [9]). For the same compound, the MIC in experiment [3] (setting [10]) and in experiment [3] (setting [11]) was 10000 µg/mL (≈ 84.6 mM) each time.
Turning to `CCCCCCCCC(O)CO` (centres unmarked) [1,2-Decandiol], the MIC in experiment [1] (336 h, M. globosa PM1) was 8000 µg/mL (≈ 45.9 mM); in experiment [1] (setting [6]), 8000 µg/mL (≈ 45.9 mM); in experiment [1] (setting [7]) it was 8000 µg/mL (≈ 45.9 mM); in experiment [2] it was 1000 µg/mL (≈ 5.74 mM); in experiment [3] (setting [8]), 1000 µg/mL (≈ 5.74 mM); in experiment [3] (setting [9]), 1000 µg/mL (≈ 5.74 mM). Besides, the values for the MIC in experiment [3] (setting [10]) and in experiment [3] (setting [11]) were 2000 µg/mL (≈ 11.5 mM) and 4000 µg/mL (≈ 23 mM), respectively.
Consider `CCCCCCCC(=O)OCC(CO)OC(=O)CCCCCCC` (centres unmarked) [3-Hydroxypropyl dicaprylate], for which the “Minimal inhibitory concentration (MIC)” value in experiment [4] (M. furfur CBS 1878) is recorded as above 20000 ppm; in experiment [4] (M. furfur CBS 7019), 20000 ppm; in experiment [1] (M. globosa CBS 7966), 8000 ppm; in experiment [1] (M. globosa PM1) it was 8000 ppm; in experiment [3] (setting [15]), 4000 ppm; in experiment [3] (setting [16]), 20000 ppm. Besides, the “Minimal inhibitory concentration (MIC)” value in experiment [3] (setting [17]) and in experiment [3] (setting [18]) was 20000 ppm each time.
For the compound `CCCCCCCC(=O)OCC` [Ethyl caprylate], the MIC in experiment [4] (setting [12]) was above 20000 µg/mL; in experiment [4] (setting [13]), 10000 µg/mL (≈ 58 mM); in experiment [1] (336 h, M. globosa PM1), 1000 µg/mL (≈ 5.8 mM); in experiment [1] (setting [7]) it was 1000 µg/mL (≈ 5.8 mM); in experiment [5] (336 h, M. pachydermatis 1892) it was 1000 µg/mL (≈ 5.8 mM); in experiment [5] (setting [14]) it was below 500 µg/mL. Further, the MIC was 4000 µg/mL (≈ 23.2 mM) in experiment [2]; 1000 µg/mL (≈ 5.8 mM) in experiment [3] (setting [8]); 1000 µg/mL (≈ 5.8 mM) in experiment [3] (setting [9]); 1000 µg/mL (≈ 5.8 mM) in experiment [3] (setting [10]); 1000 µg/mL (≈ 5.8 mM) in experiment [3] (setting [11]).
In the case of `C=CCCCCCCCCC(=O)OCC(CO)OC(=O)CCCCCCCCC=C` (centres unmarked) [3-Hydroxypropyl diundecylenoate], the “Minimal inhibitory concentration (MIC)” value in experiment [4] (M. furfur CBS 1878) is on record as above 20000 ppm; in experiment [4] (M. furfur CBS 7019), above 20000 ppm; in experiment [1] (M. globosa CBS 7966) it was 10000 ppm; in experiment [1] (M. globosa PM1), 10000 ppm.
In the case of `CCCC(O)CO` (centres unmarked) [1,2-Pentandiol], the MIC in experiment [1] (336 h, M. globosa PM1) is 10000 µg/mL (≈ 96 mM); in experiment [1] (setting [6]), 20000 µg/mL (≈ 192 mM); in experiment [1] (setting [7]), 10000 µg/mL (≈ 96 mM); in experiment [2], 10000 µg/mL (≈ 96 mM); in experiment [3] (setting [8]), 20000 µg/mL (≈ 192 mM); in experiment [3] (setting [9]), 20000 µg/mL (≈ 192 mM). Moreover, the MIC in experiment [3] (setting [10]) and in experiment [3] (setting [11]) was 20000 µg/mL (≈ 192 mM) throughout.
On to `CCCCCCCCCCC(O)CO` (centres unmarked) [1,2-Dodecandiol], for which the MIC in experiment [1] (336 h, M. globosa PM1) was 40000 µg/mL (≈ 198 mM); in experiment [1] (setting [6]) it was 40000 µg/mL (≈ 198 mM); in experiment [1] (setting [7]), 40000 µg/mL (≈ 198 mM); in experiment [2], 8000 µg/mL (≈ 39.5 mM); in experiment [3] (setting [8]), 2000 µg/mL (≈ 9.88 mM); in experiment [3] (setting [9]) it was 4000 µg/mL (≈ 19.8 mM). The MIC in experiment [3] (setting [10]) and in experiment [3] (setting [11]) was 4000 µg/mL (≈ 19.8 mM) in each case.
Regarding `CCCCCCCC(=O)OCC(O)CO` (centres unmarked) [Glyceryl monocaprylate], the MIC in experiment [4] (setting [12]) was 4000 µg/mL (≈ 18.3 mM); in experiment [4] (setting [13]) it was 4000 µg/mL (≈ 18.3 mM); in experiment [1] (336 h, M. globosa PM1) it was 500 to 1000 µg/mL (≈ 2.29 to 4.58 mM); in experiment [1] (setting [6]), 1000 µg/mL (≈ 4.58 mM); in experiment [1] (setting [7]), 1000 µg/mL (≈ 4.58 mM); in experiment [5] (336 h, M. pachydermatis 1892), 500 µg/mL (≈ 2.29 mM). In addition, the MIC in experiment [5] (setting [14]) came to 330 µg/mL (≈ 1.51 mM); in experiment [2] it was 330 µg/mL (≈ 1.51 mM); in experiment [3] (setting [8]), 1000 µg/mL (≈ 4.58 mM); in experiment [3] (setting [9]) it was 1000 µg/mL (≈ 4.58 mM); in experiment [3] (setting [10]), 1000 µg/mL (≈ 4.58 mM); in experiment [3] (setting [11]), 2000 µg/mL (≈ 9.16 mM).
Consider `C=CCCCCCCCCC(=O)OCC(COC(=O)CCCCCCCCC=C)OC(=O)CCCCCCCCC=C` [Glyceryl triundecylenoate], for which the “Minimal inhibitory concentration (MIC)” value in experiment [4] (M. furfur CBS 1878) is on record as 10000 ppm; in experiment [4] (M. furfur CBS 7019), above 20000 ppm; in experiment [1] (M. globosa CBS 7705) it was 8000 ppm; in experiment [1] (M. globosa CBS 7966), above 20000 ppm; in experiment [1] (M. globosa PM1), 8000 ppm; in experiment [5] (M. pachydermatis 1892), 4000 ppm. Further, the “Minimal inhibitory concentration (MIC)” value in experiment [5] (M. pachydermatis CBS 1879) and in experiment [2] was 4000 ppm each time.
For the compound `OCCCO` [1,3-Propandiol], the “Minimal inhibitory concentration (MIC)” value in experiment [1] (M. globosa CBS 7705) is 80000 ppm; in experiment [1] (M. globosa CBS 7966), 40000 ppm; in experiment [1] (M. globosa PM1), 33000 ppm; in experiment [2], 33000 ppm; in experiment [3] (setting [15]), 40000 ppm; in experiment [3] (setting [16]) it was 33000 ppm. In addition, the “Minimal inhibitory concentration (MIC)” value in experiment [3] (setting [17]) and in experiment [3] (setting [18]) was 80000 ppm in each case.

The record behind these values is US12274775B2, “Fatty acid esters as anti-Malassezia agents” (SYMRISE AG, priority 2019, dated 2025).
